Laboratory results from patent US20110053914A1, “Pharmaceutical Combination Comprising 6-Dimethylaminomethyl-1-(3-methoxy-phenyl)-cyclohexane-1,3-diol or 6-Dimethylaminomethyl-1-(3-hydroxy-phenyl)-cyclohexane-1,3-diol and an Antiepileptic” (Gruenenthal GmbH, priority 2009, published 2011).
Structures can show the parent of a compound that is named as a salt. Where two headings read alike, the source gives them in different places.

Key:
Assay type in all cases: in vivo, rat
male Sprague Dawley rats = test: Paw incision model in rats (post-operative pain), electronic von Frey; details: intraperitoneal, at maximum effect; effective dose at 25% of the maximum effect; tactile hyperalgesia
Source text: The paw incision model (Brennan, T. J., Vandermeulen, E. P., Gebhart, G. F., Pain 64, (1996), 493-501) is an animal model of post-operative pain.
In male Sprague Dawley rats (body weight 180-200 g) a longitudinal incision of 1 cm length is made, starting 0.5 cm from the proximal end of the paw, through the skin and fascia. Using bent tweezers the muscle is lifted up from the bottom and incised lengthwise, flat and centered using a scalpel. The muscle is spreaded bluntly with the tweezers. Subsequently, the wound is closed with two sutures.
The tactile hyperalgesia two hours after the operation is determined using an electronic von Frey filament (Somedic Sales AB, Hörby, Sweden). […] In order to investigate the sensitivity to the mechanical stimulus, the paw retraction threshold is determined on the ipsilateral paw as well as in the same position on the untreated contralateral paw and is given in grams of the applied pressure. The retraction threshold per paw is measured four times and the median value is then determined. The retraction threshold of the ipsi- and contralateral paw is measured prior administration (pre-test value) and at several times after administration of a substance, namely (15, 30 and 60 minutes after administration). […]
From the median values the Maximum Positive Effect (% MPE) is determined according to the following formula: […]

rats [1] = test: Spinal nerve ligation (Chung model for mononeuropathic pain) in rats, anti-allodynic testing; details: 30 min after A; A 4 mg/kg iv; B 10 mg/kg iv 20 min before A or vehicle; tactile allodynia
Protocol: Under pentobarbital anaesthesia (Narcoren®, 60 mg/kg i.p., Merial GmbH, Hallbergmoos, FRG), the L5, L6 spinal nerves were tightly ligated (Kim and Chung, Pain 1992; 50: 355). The left L5 and L6 spinal nerves were exposed by removing a small piece of the paravertebral muscle and a part of the left spinous process of the L5 lumbar vertebra. The L5 and L6 spinal nerves were then carefully isolated and tightly ligated with silk (NC-silk black, USP 5/0, metric 1, Braun Melsungen AG, Melsungen, FRG). After checking hemostasis, the muscle and the adjacent fascia were closed with sutures and the skin was closed with sutures.
After operation, animals were allowed to recover for one week. Animals develop tactile allodynia which is stable for at least five weeks. […] Threshold for tactile allodynia was measured with an electronic von Frey anesthesiometer (Somedic, Sweden). […] The median of the withdrawal threshold for each animal at a given time is calculated from five individual stimulations with the electronic von Frey filament. Withdrawal thresholds of the injured paws are expressed as % maximal possible effect (% MPE) comparing predrug threshold of Chung-animals (=0% MPE) and control threshold of sham-animals (=100% MPE). […] The effect of each compound and vehicle is calculated for each testing time point (e.g. 0.5, 1, 3 h post administration) as interindividual % MPE value (±SEM). […]

rats [2] = test: Randall-Selitto test in rats (carrageenan inflammatory pain); details: for ED50: Rattus norvegicus, 0.25 h
Protocol: The weight ratios of the components (a) and (b) that will lead to a supra-additive effect (synergistic effect) of the inventive pharmaceutical composition may be determined via the test of Randall and Selitto as described in Arch. Int. Pharmacodyn., 1957, 111: 409 to 419, which is a model for inflammatory pain. The respective part of the literature is hereby incorporated by reference and forms part of the present disclosure.
Acute inflammation was induced by an intraplantar injection of 0.1 ml of a carrageenan solution (0.5% in distilled water) into one hind paw. The mechanical nociceptive threshold was measured 4 hours after carrageenan injection using an Algesiometer (Ugo Basile, Italy). The device generates a mechanical force with a linear increase over time. The force is applied to the dorsal surface of the inflamed rat hind paw via a cone-shaped stylus with a rounded tip (2 mm tip diameter). The nociceptive threshold is defined as the force (in grams) at which the rat vocalises (cut-off force 250 g). The mechanical nociceptive threshold is measured at different timepoints after the drug or vehicle administration. The antinociceptive and antihyperalgesic activity of the tested substance is expressed as percentages of the maximal possible effect (% MPE). The group size is n=10.
The interactions studies presented herein were performed using equieffective doses of the two components, calculated from the ratio of the respective ED50 values of the components if administered alone.
The application route was intravenous (i.v.) for Axomadol hydrochloride (A) and intraperitoneal (i.p.) for the anticonvulsants Lamotrigine, Lacosamide, Levetiracetam, Retigabine and Carbamazepine. […] According to their respective timepoint of peak effect, A was applied 15 min and the anticonvulsant component also 15 min before timepoint of measurement of the interaction-experiments (i.e. both components were applied simultaneously). Thus, the time point of ED50 calculation of the combination corresponds to the timepoint of the peak effect of the respective compound.

[3] = ip, i.p., 15 min p. appl. (peak effect), read-out: ED50 [mg/kg] of the anticonvulsant alone

Structure (SMILES) | ED50 (rats [2]; [3]) [mg/kg] | Time point of peak effect p. appl. (rats [2]; anticonvulsant alone, i.p.) [min] | further results
COc1cccc([C@@]2(O)C[C@H](O)CC[C@@H]2CN(C)C)c1 (racemic) [A, (1RS,3RS,6RS)-6-dimethylaminomethyl-1-(3-methoxy-phenyl)-cyclohexane-1,3-diol hydrochloride] |  |  | ED25 [mg/kg] (confidence interval) of the individual substance (male Sprague Dawley rats): 9.15 mg/kg; Effect % MPE (time after administration of A) (rats [1]): 29 ± 6 (30 min) % MPE; Time point of peak effect p. appl. (rats [2]; A alone, i.v., timepoint of first measurement): 15 min; ED50 (rats [2]; iv, i.v., 15 min p. appl. (peak effect), read-out: ED50 [mg/kg] of A alone): 15.3 mg/kg; ED50 [mg/kg] of A alone (rats [2]; i.v., 15 min p. appl. (peak effect), hydrochloride): 15.3 mg/kg
CC(C)C[C@H](CN)CC(=O)O [(S)-pregabaline] |  |  | ED25 [mg/kg] (confidence interval) of the individual substance (male Sprague Dawley rats): 18.8 mg/kg
NCC1(CC(=O)O)CCCCC1 [B, Gabapentin hydrochloride] |  |  | Effect % MPE (time after administration of A) (rats [1]): 16 ± 5 (30 min) % MPE
NC(=O)N1c2ccccc2C=Cc2ccccc21 [Carbamazepine] | 30 | 15 | 
COC[C@@H](NC(C)=O)C(=O)NCc1ccccc1 [Lacosamide] | 35.9 | 15 | ED50 [mg/kg] of the anticonvulsant alone (rats [2]; i.p., 15 min p. appl. (peak effect)): 35.9 mg/kg
Nc1nnc(-c2cccc(Cl)c2Cl)c(N)n1 [Lamotrigine] | 35.3 | 15 | 
CC[C@@H](C(N)=O)N1CCCC1=O [Levetiracetam] | 986 | 15 | 
CCOC(=O)Nc1ccc(NCc2ccc(F)cc2)cc1N [Retigabine] | 5.09 | 15 | 
